Assay results: ChEMBL document CHEMBL1148459, “1-alkyl-4-acylpiperazines as a new class of imidazole-free histamine H(3) receptor antagonists” (J Med Chem, 2004)

Biological target: Histamine H3 receptor (Homo sapiens, UniProt Q9Y5N1)
Assay: Antagonist potency against human histamine H3 receptor expressed in CHO cells was determined by GTPgamma-S-assay
Type: functional, cell-based

Histamine H3 receptor, sequence (Q9Y5N1 whole entry): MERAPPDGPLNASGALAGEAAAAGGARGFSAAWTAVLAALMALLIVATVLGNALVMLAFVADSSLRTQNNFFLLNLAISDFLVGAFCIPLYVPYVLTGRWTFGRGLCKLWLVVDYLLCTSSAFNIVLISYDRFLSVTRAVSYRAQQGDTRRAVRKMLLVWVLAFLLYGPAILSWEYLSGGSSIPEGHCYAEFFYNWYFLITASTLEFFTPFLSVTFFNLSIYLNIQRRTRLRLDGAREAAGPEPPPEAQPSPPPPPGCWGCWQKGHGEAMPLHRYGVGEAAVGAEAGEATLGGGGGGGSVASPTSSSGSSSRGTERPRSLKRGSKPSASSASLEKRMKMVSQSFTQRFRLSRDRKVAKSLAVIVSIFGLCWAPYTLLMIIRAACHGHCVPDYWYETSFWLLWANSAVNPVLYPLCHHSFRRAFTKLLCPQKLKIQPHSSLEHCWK

Compound | Ki [nM]
CCC(CC)N1CCN(C(=O)CCOc2ccc(C#N)cc2)CC1 | 0.74
CCC(CC)N1CCN(C(=O)CCC(=O)c2ccc(OC)c(F)c2)CC1 | 0.43
CCC(CC)N1CCN(C(=O)CCC(=O)c2ccc(OC(F)(F)F)cc2)CC1 | 2.7
CCC(CC)N1CCN(C(=O)c2ccc(OC(F)(F)F)cc2)CC1 | 93
CCC(CC)N1CCN(C(=O)Cc2ccc(N(C)C)cc2)CC1 | 0.96
CCC(CC)N1CCN(C(=O)Cc2ccc(C(C)=O)cc2)CC1 | 24
CCC(CC)N1CCN(C(=O)COc2ccc(OC(F)(F)F)cc2)CC1 | 110
CCC(CC)N1CCN(C(=O)Cc2ccc(-c3ccccc3)cc2)CC1 | 2.9
CCC(CC)N1CCN(C(=O)Cc2ccc(OC(F)(F)F)cc2)CC1 | 2.6
CCC(CC)N1CCN(C(=O)Cc2ccc(C(F)(F)F)cc2)CC1 | 2.3
CCC(CC)N1CCN(C(=O)CCc2ccc(C(F)(F)F)cc2)CC1 | 8.5
CCC(CC)N1CCN(C(=O)CCC(=O)c2ccc(C(F)(F)F)cc2)CC1 | 1.4
CCC(CC)N1CCN(C(=O)CCC(=O)c2ccc(F)cc2)CC1 | 1.5
CCC(CC)N1CCN(C(=O)CCC(=O)c2ccc(Cl)cc2)CC1 | 0.86
CCC(CC)N1CCN(C(=O)CCOc2ccc(Cl)cc2)CC1 | 1.2
C#CC(C)(C)N1CCN(C(=O)CCC(=O)c2ccc(Cl)cc2)CC1 | 89
CCC(C)(C)N1CCN(C(=O)CCC(=O)c2ccc(Cl)cc2)CC1 | 0.54
CCCC(CCC)N1CCN(C(=O)CCC(=O)c2ccc(Cl)cc2)CC1 | 480
O=C(CCC(=O)N1CCN(C2CC2)CC1)c1ccc(Cl)cc1 | 13.3
O=C(CCC(=O)N1CCN(C2CCCCC2)CC1)c1ccc(Cl)cc1 | 3.6
O=C(CCC(=O)N1CCN(C2CCCCCCC2)CC1)c1ccc(Cl)cc1 | 450
O=C(CCC(=O)N1CCN(CC2CC2)CC1)c1ccc(Cl)cc1 | 8.3
CC(C)N1CCN(C(=O)CCC(=O)c2ccc(Cl)cc2)CC1 | 4.4
O=C(CCC(=O)N1CCN(C2CCOCC2)CC1)c1ccc(Cl)cc1 | 9.2
O=C(CCC(=O)N1CCN(C2CCCCCC2)CC1)c1ccc(Cl)cc1 | 34
O=C(CCC(=O)N1CCN(C2CCC2)CC1)c1ccc(Cl)cc1 | 1.2
